# Source: patent US10179791B2, “Spiro-cyclic amine derivatives as S1P modulators” (AbbVie B.V., priority 2010, dated 2019)
# Counter-ions that a name gives are not always drawn. Like-named read-outs stand apart in the source and are kept apart here.
# Columns and labels:
# Format in all cases: cell-based
# human S1P5 receptor = human S1P5 receptor (Homo sapiens (Human), UniProt Q9H228); assay: In vitro functional activity (agonism) on human S1P5 receptors, CHO-human-S1P5-Aequorin assay; conditions: aequorin luminescence, CHO cells, 3 independent experiments
# Sequence of human S1P5 receptor (Q9H228 whole entry): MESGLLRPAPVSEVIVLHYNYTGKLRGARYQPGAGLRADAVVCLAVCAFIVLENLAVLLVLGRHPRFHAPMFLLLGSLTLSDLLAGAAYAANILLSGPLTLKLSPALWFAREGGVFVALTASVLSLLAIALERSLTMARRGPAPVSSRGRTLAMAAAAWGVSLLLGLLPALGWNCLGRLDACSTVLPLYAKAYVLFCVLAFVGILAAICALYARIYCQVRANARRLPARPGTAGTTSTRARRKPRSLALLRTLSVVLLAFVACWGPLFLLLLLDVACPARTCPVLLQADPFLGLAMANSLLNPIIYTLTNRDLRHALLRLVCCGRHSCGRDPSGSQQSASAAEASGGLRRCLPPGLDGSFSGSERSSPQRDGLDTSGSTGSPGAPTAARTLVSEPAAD
# Excerpt: In Vitro Functional Activity (Agonism) on Human S1P5 Receptors
# (§1) The CHO-human-S1P5-Aeqorin assay was bought from Euroscreen, Brussels (Euroscreen, Technical dossier, Human Lysophospholid S1P5 (Edg8) receptor, DNA clone and CHO AequoScreen™ recombinant cell-line, catalog no: ES-593-A, September 2006). Human-S1P5-Aequorin cells express mitochondrial targeted apo-Aequorin. Cells have to be loaded with coelanterazine, in order to reconstitute active Aequorin. After binding of agonists to the human S1P5 receptor the intracellular calcium concentration increases and binding of calcium to the apo-Aequorin/coelenterazine complex leads to an oxidation reaction of coelenterazine, which results in the production of apo-Aequorin, coelenteramide, CO2 and light ([…]max 469 nm). This luminescent response is dependent on the agonist concentration. Luminescence is measured using the MicroBeta Jet (Perkin Elmer). Agonistic effects of compounds are expressed as pEC50. Compounds were tested at a 10 points half log concentration range, and 3 independent experiments were performed in single point's measurements.
# human S1P3 receptor = human S1P3 receptor (Homo sapiens (Human), UniProt Q99500); assay: In vitro functional activity (agonism) on human S1P3 receptors, CHO-human-S1P3-Aequorin assay; conditions: aequorin luminescence, CHO K1 cells, 3 independent experiments, read-out: S1P3 pEC50 (converted)
# Sequence of human S1P3 receptor (Q99500 whole entry): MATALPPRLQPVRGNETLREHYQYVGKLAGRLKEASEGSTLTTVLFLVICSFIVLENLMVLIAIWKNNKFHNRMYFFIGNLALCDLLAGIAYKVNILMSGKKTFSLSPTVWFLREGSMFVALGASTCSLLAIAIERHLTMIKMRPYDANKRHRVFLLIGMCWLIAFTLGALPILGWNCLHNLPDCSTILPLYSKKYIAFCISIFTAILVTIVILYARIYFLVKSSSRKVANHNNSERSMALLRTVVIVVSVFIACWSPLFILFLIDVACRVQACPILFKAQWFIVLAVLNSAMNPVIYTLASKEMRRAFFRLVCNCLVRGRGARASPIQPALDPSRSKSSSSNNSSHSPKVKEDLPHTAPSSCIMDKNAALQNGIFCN
# Excerpt: In Vitro Functional Activity (Agonism) on Human S1P3 Receptors
# The CHO-human-S1P3-Aeqorin assay (CHO/Gα16/AEQ/h-S1P3) was established at Solvay Pharmaceuticals. The plasmid DNA coding for the S1P3 receptor (accession number in GenBank NM_005226 was purchased from UMR cDNA resource Centre (Rolla, Mo.). The pcDNA3.1/hS1P3 construct carrying the mitochondrially targeted apo-Aeqorin and Gal6 protein was transfected in CHO K1 cell-line.
# as §1, with “Human-S1P3-Aequorin” for “The CHO-human-S1P5-Aeqorin assay was bought from Euroscreen, Brussels (Euroscreen, Technical dossier, Human Lysophospholid S1P5 (Edg8) receptor, DNA clone and CHO AequoScreen™ recombinant cell-line, catalog no: ES-593-A, September 2006). Human-S1P5-Aequorin”, “S1P3” for “S1P5”
# human S1P1 = human S1P1 (Homo sapiens (Human), UniProt P21453); assay: In vitro functional activity (agonism) on human S1P1 receptors (method A), CHO-K1-human-S1P1-Aequorin assay
# Sequence of human S1P1 (P21453 whole entry): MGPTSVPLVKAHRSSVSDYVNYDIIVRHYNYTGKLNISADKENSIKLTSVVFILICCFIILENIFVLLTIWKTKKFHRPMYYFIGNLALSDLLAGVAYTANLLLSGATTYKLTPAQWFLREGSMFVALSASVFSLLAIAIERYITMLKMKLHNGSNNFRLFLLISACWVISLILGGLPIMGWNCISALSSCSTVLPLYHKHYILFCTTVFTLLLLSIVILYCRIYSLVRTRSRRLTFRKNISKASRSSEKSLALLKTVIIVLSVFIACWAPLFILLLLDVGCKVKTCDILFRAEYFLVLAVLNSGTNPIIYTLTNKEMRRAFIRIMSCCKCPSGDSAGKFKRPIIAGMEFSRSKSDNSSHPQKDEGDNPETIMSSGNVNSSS
# Excerpt: In Vitro Functional Activity (Agonism) on Human S1P1 Receptors (Method A)
# as §1, with “Human-S1P1-Aequorin” for “The CHO-human-S1P5-Aeqorin assay was bought from Euroscreen, Brussels (Euroscreen, Technical dossier, Human Lysophospholid S1P5 (Edg8) receptor, DNA clone and CHO AequoScreen™ recombinant cell-line, catalog no: ES-593-A, September 2006). Human-S1P5-Aequorin”, “S1P1” for “S1P5”, “2” for “3”
# [1] = agonism, determined using method A (aequorin luminescence, CHO-K1 cells), 2 independent experiments, read-out: S1P1^A pEC50 (converted)
Compound,S1P5 pEC50 (human S1P5 receptor),EC50 (human S1P3 receptor),EC50 (human S1P1; [1]),EC50 (human S1P1)
"O=C(O)CCN1CCC2(CC1)COc1cc(C#Cc3ccccc3)ccc12 [Compound 303, 3-[6-(2-Phenylethynyl)-2H-spiro[1-benzofuran-3,4′-piperidine]-1′-yl]propanoic acid hydrochloride]",7.6,> 10 µM,> 31.6 µM,
"O=C(O)CCN1CCC2(CC1)COc1cc(OCc3c(Cl)cccc3Cl)c(F)cc12 [Compound 289, 3-{6-[(2,6-Dichlorophenyl)methoxy]-5-fluoro-2H-spiro[1-benzofuran-3,4′-piperidine]-1′-yl}propanoic acid]",7.5,> 10 µM,> 31.6 µM,
"O=C(O)CN1CCC2(CC1)COc1cc(C3CC3c3c(Cl)cccc3Cl)ccc12 (centres unmarked) [Compound 176, 2-{6-[2-(2,6-Dichlorophenyl)cyclopropyl]-2H-spiro[1-benzo-furan-3,4′-piperidine]-1′-yl}acetic acid hydrochloride]",7.6,> 10 µM,> 31.6 µM,
"O=C(O)CCN1CCC2(CC1)OCc1cc(OCc3c(Cl)cccc3Cl)ccc12 [Compound 203, 3-{5-[(2,6-Dichlorophenyl)methoxy]-3-H-spiro[2-benzofuran-1,4′-piperidine]-1′-yl}propanoic acid hydrochloride]",6.7,> 10 µM,> 10 µM,
"O=C(O)CCN1CCC2(CC1)COc1cc(OCc3c(Cl)cccc3C3CC3)ccc12 [Compound 75, 3-{6-[(2-Chloro-6-cyclopropyl)phenyl)methoxy]-2H-spiro[1-benzofuran-3,4′-piperidine]-1′-yl}propanoic acid hydrochloride]",7.7,> 10 µM,2.51 µM,
"O=C(O)CCN1CCCC2(COc3cc(OCc4c(Cl)cccc4Cl)ccc32)C1 (centres unmarked) [Compound 321, 3-{6-[(2,6-Dichlorophenyl)methoxy]-2H-spiro[1-benzofuran-3,3′-piperidine]-1′-yl}propanoic acid hydrochloride]",7.1,> 10 µM,> 31.6 µM,
"O=C(O)CCN1CCC2(CC1)COc1cc(S(=O)(=O)Cc3c(Cl)cccc3Cl)ccc12 [Compound 299, 3-(6-{[(2,6-Dichlorophenyl)methane]sulfonyl}-2H-spiro[1-benzofuran-3,4′-piperidine]-1′-yl}propanoic acid hydrochloride]",6,> 10 µM,> 31.6 µM,
"O=C(O)CCN1CCCC2(COc3cc(OCc4c(Cl)cccc4C4CC4)ccc32)C1 (centres unmarked) [Compound 317, 3-{6-[(2-Chloro-6-cyclopropylphenyl)methoxy]-2H-spiro[1-benzofuran-3,3′-piperidine]-1′-yl}propanoic acid hydrochloride]",7,> 10 µM,> 31.6 µM,
"CC(CN1CCC2(CC1)COc1cc(OCc3c(Cl)cc(Cl)cc3Cl)ccc12)C(=O)O (centres unmarked) [Compound 102, 2-Methyl-3-{6-[(2,4,6-trichlorophenyl)methoxy]-2H-spiro[1-benzofuran-3,4′-piperidine]-1′-yl}propanoic acid hydrochloride]",7.8,,0.631 µM,
"CCc1cccc(Cl)c1CSc1ccc2c(c1F)OCC21CCN(CCC(=O)O)CC1 [Compound 296, hydrochloride]",8.7,> 10 µM,,
"CCc1cccc(CC)c1COc1ccc2c(c1)OCC21CCN(CCC(=O)O)CC1 [Compound 258, 3-{6-[(2,6-diethylphenyl)methoxy]-2H-spiro[1-benzo-furan-3,4′-piperidine]-1′-yl}propanoic acid]",7.8,> 10 µM,,2.51 µM
"CCc1cccc(Cl)c1COc1ccc2c(c1F)OCC21CCN(CCC(=O)O)CC1 [Compound 136, 3-{6-[(2-Chloro-6-ethylphenyl)methoxy]-7-fluoro-2H-spiro[1-benzofuran-3,4′-piperidine]-1′-yl}propanoic acid hydrochloride]",8,> 10 µM,1.26 µM,
"CCc1cccc(Cl)c1CSc1ccc2c(c1)OCC21CCN(CCC(=O)O)CC1 [Compound 140, 3-(6-{[(2-Chloro-6-ethylphenyl)methyl]sulfanyl}-2H-spiro[1-benzofuran-3,4′-piperidine]-1′-yl}propanoic acid hydrochloride]",8.5,> 10 µM,,0.158 µM
"O=C(O)CCN1CCC2(CC1)COc1c2ccc(OCc2c(Cl)cc(Cl)cc2Cl)c1F [Compound 132, 3-{7-Fluoro-6-[(2,4,6-trichlorophenyl)methoxy]-2H-spiro[1-benzofuran-3,4′-piperidine]-1′-yl}propanoic acid hydrochloride]",8.3,2 µM,> 31.6 µM,
"CCCCCCCCOc1ccc2c(c1F)OCC21CCN(CCC(=O)O)CC1 [Compound 277, 3-[7-fluoro-6-(octyloxy)-2H-spiro[1-benzofuran-3,4′-piperidine]-1′-yl]propanoic acid]",7.8,> 10 µM,0.0794 µM,
"O=C(O)CCN1CCCC2(COc3cc(OCc4c(Cl)cccc4C(F)(F)F)ccc32)C1 (centres unmarked) [Compound 326, 3-(6-{[2-Chloro-6-(trifluoromethyl)phenyl]methoxy}-2H-spiro[1-benzofuran-3,3′-piperidine]-1′-yl)propanoic acid]",,> 10 µM,> 31.6 µM,
"O=C(O)CCN1CCC2(CC1)COc1cc(SCc3c(Cl)cccc3C3CC3)ccc12 [Compound 141, 3-(6-{[(2-Chloro-6-cyclopropylphenyl)methyl]sulfanyl}-2H-spiro[1-benzofuran-3,4′-piperidine]-1′-yl}propanoic acid hydrochloride]",8.2,> 10 µM,0.316 µM,
"O=C(O)CN1CCC2(CC1)COc1cc(OCc3c(Cl)cc(Cl)cc3Cl)ccc12 [Compound 110, 2-{6-[(2,4,6-Trichlorophenyl)methoxy]-2H-spiro[1-benzofuran-3,4′-piperidine]-1′-yl}acetic acid hydrochloride]",7.8,2 µM,> 10 µM,
"O=C(O)CCN1CCC2(CC1)COc1cc(OCc3c(Cl)cccc3OC(F)(F)F)ccc12 [Compound 77, 3-(6-{[2-Chloro-6-(trifluoromethoxy)phenyl]methoxy}-2H-spiro[1-benzofuran-3,4′-piperidine]-1′-yl)propanoic acid hydrochloride]",7.6,> 10 µM,6.31 µM,
"CC(C)c1cccc(Cl)c1COc1ccc2c(c1)OCC21CCN(CCCC(=O)O)CC1 [Compound 127, 4-(6-{[2-Chloro-6-(propan-2-yl)phenyl]methoxy}-2H-spiro[1-benzofuran-3,4′-piperidine]-1′-yl)butanoic acid hydrochloride]",6.9,2.51 µM,7.94 µM,
"O=C(O)CCN1CCC2(CC1)COc1cc(SCc3c(Cl)cc(Cl)cc3Cl)ccc12 [Compound 143, 3-(6-{[(2,4,6-Trichlorophenyl)methyl]sulfanyl}-2H-spiro[1-benzofuran-3,4′-piperidine]-1′-yl}propanoic acid hydrochloride]",7.5,,> 10 µM,
"CC(CN1CCC2(CC1)COc1cc(SCc3c(Cl)cccc3Cl)ccc12)C(=O)O (centres unmarked) [Compound 153, 3-(6-{[(2,6-Dichlorophenyl)methyl]sulfanyl}-2H-spiro[1-benzofuran-3,4′-piperidine]-1′-yl}-2-methylpropanoic acid hydrochloride]",7.9,,1 µM,
"CC(C)c1cccc(F)c1COc1ccc2c(c1)OCC21CCN(CCC(=O)O)CC1 [Compound 252, 3-(6-{[2-fluoro-6-(propan-2-yl)phenyl]methoxy}-2H-spiro[1-benzofuran-3,4′-piperidine]-1′-yl)propanoic acid]",,5.01 µM,,
